Inconclusive results are not listed.
These molecules were tested against Protein AF-9 (Homo sapiens) (UniProt P42568) (assay: inhibitors of AF4-AF9 protein interaction, dose response, biochemical, cherry-picked samples, plate reader (AID 720495)). Conditions: biochemical protein-protein interaction assay.
Protein AF-9 (Homo sapiens), sequence (P42568 whole entry, looked up): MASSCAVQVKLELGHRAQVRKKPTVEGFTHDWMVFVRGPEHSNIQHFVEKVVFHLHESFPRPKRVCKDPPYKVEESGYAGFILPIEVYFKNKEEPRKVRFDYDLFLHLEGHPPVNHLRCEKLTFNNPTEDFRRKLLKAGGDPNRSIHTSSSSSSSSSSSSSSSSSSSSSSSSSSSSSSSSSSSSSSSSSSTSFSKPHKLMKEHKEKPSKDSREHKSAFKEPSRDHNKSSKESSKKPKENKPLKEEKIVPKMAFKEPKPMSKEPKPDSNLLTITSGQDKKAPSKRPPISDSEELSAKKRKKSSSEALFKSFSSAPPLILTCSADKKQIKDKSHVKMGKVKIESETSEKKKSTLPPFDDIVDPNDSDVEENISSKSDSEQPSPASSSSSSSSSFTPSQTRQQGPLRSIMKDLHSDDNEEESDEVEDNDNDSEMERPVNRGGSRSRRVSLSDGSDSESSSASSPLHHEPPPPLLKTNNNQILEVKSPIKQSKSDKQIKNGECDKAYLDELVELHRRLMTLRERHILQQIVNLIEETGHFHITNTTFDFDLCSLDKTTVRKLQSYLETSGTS

| Compound | AC50 [µM] |
| --- | --- |
| CN(C)c1ccc(/C=C/c2cc[n+](C)c3ccccc23)cc1 | 1.05 |
| c1ccc(N=Nc2ccc3cccccc2-3)cc1 | 0.232 |
| CCCC(=O)NC(c1ccc(N(C)C)cc1)c1ccc2cccnc2c1O (stereo not given) | 1.04 |
| CN(C)c1ccc2nc3ccc(=O)cc-3sc2c1 | 11.3 |
| CNC[C@H](Cc1ccccc1)NC[C@@H](Cc1cccc2ccccc12)NCCc1ccc(C)cc1 | 10.1 |
| CCN1CCN(c2ccc(N)cc2)CC1 | 1.54 |
| CCN(Cc1ccccc1)c1ccc(/C=N/N=C(N)N)cc1 | 4.43 |
| CC1C(=NO)C(C)C(c2ccc(N(C)C)cc2)NC1c1ccc(N(C)C)cc1 (stereo not given) | 10.4 |
| COc1ccc2[nH]c3c(C)c4cc[n+](C)cc4c(C)c3c2c1 | 3.07 |
| NC(N)=N/N=C/c1cn(-c2ccccc2)nc1-c1cccs1 | 3.92 |
| CC1NC(=O)NC1CCCCCC(=O)Nc1ccc(F)c(Cl)c1 (stereo not given) | < 0.08 |
| CCN1CCN(c2ccc(N)cc2C)CC1 | 6.46 |
| NC(N)=NCCCS(=O)(=O)Nc1ccc(Nc2c3ccccc3nc3cc([N+](=O)[O-])ccc23)cc1 | 2.85 |
| CN(C)c1ccc(/C=C2/C[N+](C)(C)C/C(=C/c3ccc(N(C)C)cc3)C2=O)cc1 | 2.81 |
| CCN(CC)CCC(c1ccc(N(C)C)cc1)c1c(OC)cc(OC)c2c(-c3ccccc3)cc(=O)oc12 (stereo not given) | 3.97 |
| CN(CCc1ccccc1)C(=O)c1ccc(NC(=O)Cc2ccc(NC(=O)C3CCN(C(=O)C4CCCC4)CC3)cc2)cc1 | < 0.08 |
| COc1ccccc1C#Cc1ccc2c(c1)[C@H]1[C@H](CCN1C(=O)c1ccncc1)[C@@H](CO)N2 | 7.63 |
| CCOc1ccc(NCc2cccn2-c2nnc(N3CCC(C(=O)NCCCN4CCCCC4C)CC3)s2)cc1 (stereo not given) | 4.96 |
| O=C(N/N=C/c1c(O)ccc2ccccc12)c1ccc[n+](CCO)c1 | 0.257 |
| Oc1cc(NCCN2CCOCC2)cc2cccnc12 | 7.86 |
| COc1ccc(S(=O)(=O)/N=C2\C=C(Nc3ccc(O)cc3)C(=O)c3ccccc32)cc1 | 0.724 |
| C[C@@H]1CN([C@@H](C)CO)C(=O)c2cc(N(C)C)ccc2O[C@@H]1CN(C)Cc1ccc(-c2ccccc2)cc1 | 8.93 |
| CCOc1ccc(NCc2cccn2-c2nnc(N3CCC(C(=O)NCCCN4C(C)CCCC4C)CC3)s2)cc1 (stereo not given) | 5.36 |

| Compound | AC50 [µM] |
| --- | --- |
| CN1CCN(C(c2ccc(C(F)(F)F)cc2)c2cc(Cl)c3cccnc3c2O)CC1 (stereo not given) | 1.54 |
| Cn1c(=O)cc2c3c(c(N4CCCCC4)ccc31)C(=O)c1ccccc1-2 | 8.32 |
| CCc1nc2ccc(C(=O)NC3CCN(Cc4ccccc4)CC3)cn2c1N(C)Cc1ccc(N(C)C)cc1 | 5.52 |
| CCC[C@@H](CN1CCC[C@H]1CN1C(N)=NC[C@@H]1Cc1ccccc1)N1C[C@@H](Cc2ccccc2)N(CCc2ccc(Cl)c(Cl)c2)C1=N | 5.41 |
| Cc1ccc2nc(-c3ccc(NC(=S)NC4CC(C)(C)NC(C)(C)C4)cc3)sc2c1 | 7.34 |
| CN1CCN(C2CCN(Cc3ccc(O)c4ncccc34)CC2)CC1 | 2.77 |
| CC(=O)c1cccc2c(O)c(C3=Nc4ccccc4C3=O)[nH]c12 | 3.11 |
| O=c1[nH]c2ccccc2n1C1CCN(C(c2nnnn2C2CCCCC2)C2CC2)CC1 (stereo not given) | 11.1 |
| Cc1ccc2c(c1)C1CN(C)CCC1N2Sc1ccccc1[N+](=O)[O-] (stereo not given) | 5.01 |
| CN(C)c1ccc(C=c2c3ccccc3n3c2cc(-c2ccccc2)[n+]3C)cc1 | 2.43 |
| CCN(CCCNc1cc2c(c(N)c1S(=O)(=O)O)C(=O)c1ccccc1C2=O)c1ccccc1 | 3.65 |
| CCN1/C(=C/C(C)=C/c2sc3ccccc3[n+]2CC)Sc2ccccc21 | 5.6 |
| C#CCOCCOCCOCCNc1nc(N2CCN(C(=O)[C@H](CCCCN)n3cc([C@@H](N)CC(N)=O)nn3)CC2)nc(N2CCN(C(=O)[C@H](CCCCN)n3cc([C@@H](N)CC(N)=O)nn3)CC2)n1 | 6.87 |
| Cc1c(C(=O)NCC(c2ccco2)N(C)C)oc2c(Cl)cccc12 (stereo not given) | 7.77 |
| CSC(=S)N/N=C/c1c[nH]c2ccccc12 | 11.5 |
| CSc1ccc2c(c1)N(CCC1CCCCN1C)c1ccccc1S2 (stereo not given) | 6.31 |
| COc1cc2c(c(OC)c1OC)-c1ccc(O)c(=O)cc1[C@@H](N)CC2 | 2.3 |
| CCN(CC)c1ccc(C(=C2C=CC(=[N+](CC)CC)C=C2)c2ccc(N(CC)CC)cc2)cc1 | 0.153 |
| O=C(CN1CCCC1)N/N=C/c1c(O)ccc2ccccc12 | 0.249 |
| NC(=NCCCCCCN=C(N)/N=C(\N)Nc1ccc(Cl)cc1)/N=C(\N)Nc1ccc(Cl)cc1 | 5.27 |
| Oc1cc(-c2ccncc2)cc2cccnc12 | 3.01 |
| CCOc1ccc(NCc2cccn2-c2nnc(N3CCC(C(=O)NCCCN4CCCCC4CC)CC3)s2)cc1 (stereo not given) | 4.01 |
